Assay results as given in US20200222418A1, “USE OF PHENOTHIAZINE DERIVATIVE IN THE TREATMENT OF INFECTION CAUSED BY BACTERIA CARRYING TYPE IV PILI” (priority 2017, published 2020).
“Also recorded” adds a separate entry of the source.

Legend:
[1] = tested on: N. meningitidis 2C4.3 aggregates; assay type: cell-based, Neisseria meningitidis; details: for dispersion of bacterial aggregates formed in suspension: aggregates pre-formed 2 h, 20 min, Trifluoperazine 10-40 μM, Gentamicin 150 μg/ml, Cefotaxim 20 μg/ml
Description: N. meningitidis 2C4.3 was grown in liquid culture at 10^7 CFU/ml for 2 h to form bacterial aggregates and were treated with increasing concentrations of Trifluoperazine (10 to 40 μM), Gentamicin (150 μg/ml) or cefotaxim (20 μg/ml) for 20 minutes and bacterial aggregates were immediately visualized using a phase-contrast microscope. […] (B) Quantification of the bacterial aggregation was performed using Image J software.
N. meningitidis 2C4.3 wild type strain and the isogenic derivative mutant PilT ([…]PiIT) were grown in liquid culture at 10^7 CFU/ml for 2 h to form bacterial aggregates and then treated with 50 μM Trifluoperazine. Time lapse phase-contrast video microscopy was performed to visualize the effect on bacterial aggregates over time. Images were taken at the indicated time points of the video.
N. meningitidis 2C4.3 was grown in liquid culture at 10^7 CFU/ml for 2 h to form bacterial aggregates and were treated with 30 μM Trifluoperazine for 30 minutes to induce bacterial dispersion or PBS as a control. The medium was replaced to remove the Trifluoperazine and the reformation of bacterial aggregates were visualized overtime using a phase-contrast microscope.
Bacteria were grown in suspension for 2 h then Phenothiazine derivatives were added at the indicated concentrations.
N. meninigitidis 2C4.3 strain was grown in suspension in wells of a 24 well plate, containing 1 ml of DMEM medium supplemented with 10% heat-inactivated fetal calf serum. After 2 h of growth, Trifluoperazine (or control vehicle) was added at various concentrations ranging from 10 to 40 μM for 20 min and the bacterial aggregates were visualized over time using a phase-contrast microscope.
N. meninigitidis 2C4.3 strain was grown in suspension in wells of a 24 well plate, containing 1 ml of DMEM medium supplemented with 10% heat-inactivated fetal calf serum. After 2 h of growth, various concentrations (0.5 to 80 μM) of phenothiazine-derivative compounds or control vehicle (PBS or DMSO) were added to the wells for 30 min and the bacterial aggregates were visualized using a phase-contrast microscope. Were tested phenothiazine-derivative compounds of: • the Piperazine group: Trifluoperazine (Sigma #T8516), Fluphenazine (Sigma #F4765), Prochlorperazine (Sigma #P9178) Perphenazine (Sigma #P6402); • the Piperidine group: Thioridazine (Sigma #T9025) and Mesoridazin (Sigma #M4068); • the Aliphatic group: Chlorpromazine (Sigma #C8138), Promazine (Sigma #P6656), Triflupromazine (Sigma #1686003) and levomepromazine (Sigma #L0500000).

[2] = tested on: Nm2C4.3 microcolonies on HBMEC, human bone marrow endothelial cell line; test: Dispersion of meningococcal microcolonies on HBMEC (vascular colonisation index); assay type: cell-based, Neisseria meningitidis; details: 30 min, Trifluoperazine 10-40 μM, Gentamicin 150 μg/ml, Cefotaxim 20 μg/ml
Description: Human […] microvascular endothelial cells (HBMEC) were infected with Nm2C4.3 for 1 h 30, treated with Trifluoperazine (10-40 μM) for 30 minutes, before fixation and immunofluorescence analysis using anti-Nm2C4.3 antibody and Alexa Fluor 633 Phalloidin. (A) Representative fluorescence microscopy showing bacterial colony (white dots) formed at the surface of the endothelial cells. (B) Quantification of the bacterial colonization was performed using Image J software.
HBMEC, a human endothelial cell line isolated from […] capillaries (Schweitzer et al., 1997) were grown in Dulbecco's Modified Eagle Medium (DMEM) 4.5 g/L-Glutamax (ThermoFischer) 10% FBS. Cells were grown on Thermanox coverslips coated with gelatin 2% (BD Difco #214340) for 2 days to reach confluency. Cells were then infected with a suspension of Nm2C4.3 (˜10^7 CFU/ml) in DMEM/FBS during 30 minutes to allow bacterial adhesion. Cells were then washed three times with medium to remove non-adherent bacteria and infection was pursued for 1 h 30: adherent bacteria grew at the endothelial cell surface and formed micro-colonies. Trifluoperazine was then added to obtain final concentrations of 10, 20, 30 and 40 μM. After incubation for 30 minutes, cells were washed and fixed in 4% Paraformaldehyde for 10 min, washed three times with PBS, and permeabilized with 0.1% Triton X-100 in PBS for 10 min. Cells were blocked for 30 min with 3% BSA in PBS and were incubated for 2 h with the primary antibodies (Rabbit polyclonal anti-Nm2C4.3 strain, kindly provided by Dr X. Nassif, INEM, Paris). After three washes with PBS, cells were incubated for 1 h with […] anti-rabbit IgG (Jackson ImmunoResearch Laboratories), together with Alexa Fluor 633 Phalloidin (Thermofischer) and DAPI ([…], Sigma Aldrich) to stain Actin and nuclei, respectively. Labelled preparations were mounted in Glycergel media (DAKO) and image acquisitions were performed with a DM16000 microscope (Leica, X40). Quantification was done with ImageJ software (NIH). […]

[3] = tested on: HDMECs infected with Nm2C4.3; test: Cytoskeleton remodelling and cell junction integrity of infected HDMEC (immunofluorescence); assay type: cell-based, human; details: Gentamicin 150 μg/ml 1 h, Trifluoperazine 50 μM applied after gentamicin
Description: (A) Experimental procedure: HDMEC were infected for 2 h with Nm2C4.3, treated for 1 h with gentamicin (150 μg/ml) and then 15 min with Trifluoperazine (50 μM) (or solvent alone as a control) and left in medium for 1 h before fixation. (B) Upper panels: Representative fluorescence microscopy showing the effect on the endothelial cell cytoskeleton remodelling analysed by immunostaining of Ezrin and Actin. Lower panels: Effect on the endothelial cell junction integrity was analysed by immunostaining of Actin and VE-cadherin. (C) Quantification of the bacterial colonization (upper panel) Ezrin recruitment and cortical actin polymerization at sites of bacterial adhesion (lower panel) was performed using Image J software.
HDMECs were grown in their specific culture medium (Promocell #C-12210) and confluent monolayers were infected with 2C4.3. Briefly, bacteria were precultured in prewarmed cell culture medium for 1 h 30 min at 37° C. 5% CO2. The OD600 was adjusted to 0.1 and HDMECs were then overlaid with bacteria for 30 min (MOI of 100). Unbound bacteria were removed by three washes in cell culture media and infection was allowed to proceed for 1 h at 37° C. 5% CO2. Gentamicin was added at 150 μg/ml for 1 h, then after three washes in cell culture media, Trifluoperazine was applied where mentioned at 50 μM for 20 min. After three washes in cell culture media, cells were allowed to recover for 1 h in cell culture media. At the indicated time, cells were fixed with 4% Paraformaldehyde for 10 min. Immunolabelling was then performed as above described in example 4, using DAPI, Alexa Fluor 633 Phalloidin, Polyclonal antisera raised against Ezrin, obtained from Pr P. Mangeat (CRBM, Montpellier, France) and anti-human VE-Cadherin (eBioscience #BMS158).

Row | SMILES | dispersion of bacterial aggregates formed in suspension [1] | dispersion of compact meningococcal microcolonies established at the endothelial cell surface [2] | Ezrin recruitment and cortical actin polymerization at bacterial adhesion sites [3] | VE-cadherin staining / endothelial cell junction integrity [3] | bacterial colonies at the endothelial cell surface [3] | reversibility of the effect on aggregation upon removal of the drug ([1]; 30 μM for 30 minutes, then medium replaced) | time after addition within which dispersion of aggregates occurs ([1]; time lapse video microscopy, 50 μM) [min]
1 | CN[C@@H]1[C@@H](O)C(O[C@@H]2[C@@H](O)[C@H](O[C@H]3O[C@H]([C@@H](C)NC)CC[C@H]3N)[C@@H](N)C[C@H]2N)OC[C@]1(C)O (stereo partly drawn) [Gentamicin, (3R,4R,5R)-2-{[(1S,2S,3R,4S,6R)-4,6-diamino-3-{[(2R,3R,6S)-3-amino-6-[(1R)-1-(methylamino)ethyl]oxan-2-yl]oxy}-2-hydroxycyclohexyl]oxy}-5-methyl-4-(methylamino)oxane-3,5-diol] | did not significantly induce the dispersion | poorly induced the dispersion | still induced Ezrin recruitment, cortical actin polymerization | discontinuous distribution of VE-cadherin | reduced the number of colonies |  | 
2 | CN1CCN(CCCN2c3ccccc3Sc3ccc(C(F)(F)F)cc32)CC1 [Trifluoperazine] | induced their dispersion | induced their dispersion | Few Ezrin recruitment | preserved endothelial cell junction integrity | induced their dispersion; also recorded: induced the dispersion of most of the bacterial colonies | reversible | 10 to 15
